Tested on: multiple myeloma
Assay: Clinical response to Selinexor-based regimens after anti-CD38 monoclonal antibody in the immediate prior line (STOMP, XPORT-MM-028)
Assay type: in vivo, human
Conditions: Selinexor-based regimen

O=C(/C=C\n1cnc(-c2cc(C(F)(F)F)cc(C(F)(F)F)c2)n1)NNc1cnccn1 [Selinexor]
PFS, anti-CD38 mAb in immediate prior line versus not (STOMP and XPORT-MM-028 trials): statistically significant improvement | VGPR rate, anti-CD38 mAb in immediate prior line versus not (STOMP trial (xpd and xkd arms)): higher | ORR and CBR, anti-CD38 mAb in immediate prior line versus not (XPORT-MM-028 trial (xvd)): considerably higher
